Active and inactive are the calls of the source.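 Rule for the calls: active = compounds giving half or more protection of infected cells from virus-caused growth loss, again on retest; inactive = the rest.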 Where a SMILES comes first, the peptide text is derived from it. The star is where a group is joined. Boc = CC(C)(C)OC(=O)*; OBn = c1ccc(CO*)cc1 A value given as a limit tells only on which side of the number the result lay.

The test concerns CEM cells HIV-1 protection, formazan growth assay. The experiment in a line: NCI AIDS Antiviral Assay. The conditions noted are these: for IC50: measured here: growth of uninfected CEM cells. The method in brief:
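Category rules: moderately active means at least 50% protection on retest, and confirmed active means 100% protection reproducibly. The underlying data came from a formazan growth assay in HIV-1-infected CEM cells.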

For the compound `CC(=O)OC1CC2C3(C)CC4O[C@@](C)(O)CC(C)C4[C@@]3(C)CC[C@]23C[C@@]32CC[C@H](OC3OCC(O)C(O)C3O)C(C)(C)C12` (some centres not stated), the EC50 is > 53.7 µM and the IC50 is 22.4 µM.
As to `COC(=O)/C=C/C(=O)/C=C/COC(=O)c1ccccc1`, the EC50 was > 95.5 µM and the IC50 is 61.7 µM.
`Cn1c(=O)cc(NCCc2ccccc2)[nH]c1=O`: the EC50 is > 200 µM and the IC50 was 17.4 µM.
In the same order, the values of `CC(=O)OCC1OC(n2c(=O)n(-c3ccccc3)c(=O)c3cc(Br)cc(Br)c32)C(OC(C)=O)C(OC(C)=O)C1OC(C)=O` (configuration not stated) are > 13.8 µM and > 13.8 µM.
The corresponding values for `COC(OC)C(=O)[C@H]1[C@H](C(=O)OCC2OC(n3cc(C)c(=O)[nH]c3=O)CC2N=[N+]=[N-])C[C@H]2[C@@H]3CCC4=CC(=O)C=C[C@]4(C)[C@H]3[C@@H](O)C[C@@]21C` (some centres not stated) are 0.0331 µM and 13.2 µM.
Consider `CC1CC(=O)C2CC(CO)=CCCC2C1(C)CC/C(=C/CO)CO` (configuration not stated), for which the outcome was inactive.
Regarding `CC(CN=C(N)CSS(=O)(=O)O)OC12CC3CC(CC(C3)C1)C2` (configuration not stated), the EC50 was > 200 µM and the IC50 was determined as 35.5 µM.
On to `O=C(NCc1ccccc1)/C(=C/c1ccccc1)NC(=O)c1ccccc1`, for which the EC50 is > 200 µM and the IC50 is > 200 µM.
As for `CC(=O)Nc1cc2cc(N)ccc2oc1=O`, the EC50 is > 107 µM and the 50% inhibitory concentration (IC50) is > 107 µM.
In the case of `NC(N)=N/N=C(\c1nc2ccc([N+](=O)[O-])cc2[nH]c1=O)C(O)c1ccc([N+](=O)[O-])cc1` (configuration not stated), the EC50 was > 158 µM and the IC50 is > 158 µM.
Regarding `NS(=O)(=O)c1ccc(N=Cc2cc(Cl)cc(Cl)c2O)cc1`, the EC50 was > 200 µM and the IC50 amounted to 16.6 µM.
The corresponding values for `COc1ccc(COCC(Cn2ccnc2)OCc2ccc(C(=O)O)cc2)cc1` (configuration not stated) are > 631 µM and 589 µM.
In the same order, the values of `CCOC(=O)c1nc2ccc(C(F)(F)F)cc2nc1NCc1cc(OC)c(OC)c(OC)c1` are > 126 µM and > 126 µM.
Take `CN1CCOC(c2ccc(Cl)cc2)O1` (configuration not stated): the outcome was inactive.
Consider `CCn1c(O)c(C=Nc2ccccc2)s/c1=N/Nc1nc(-c2ccc([N+](=O)[O-])cc2)cs1`, for which the EC50 is > 200 µM and the IC50 was 14.5 µM.
For the compound `Cc1cc2c(cc1C)NC1=C(N2)OC(c2ccccc2C)C1=O` (configuration not stated), the EC50 is > 81.3 µM and the half-maximal inhibitory concentration (IC50) was > 81.3 µM.
As for `COc1ccc(C(=O)C(c2ccc(OC)cc2)C2OC(=O)C(Cl)=C2Cl)cc1` (configuration not stated), the EC50 is > 17.8 µM and the IC50 is > 17.8 µM.
For the compound `CCOP(=O)(OCC)/C(C#N)=C/c1ccc2ccccc2c1`, the EC50 was > 22.9 µM and the half-maximal inhibitory concentration (IC50) was > 22.9 µM.
Turning to `COc1ccc(C[C@H](N)C(=O)N2C[C@@H](CO)C[C@@H](n3cnc4c(N(C)C)ncnc43)C2)cc1`, the EC50 was > 275 µM and the IC50 was > 275 µM.
In the case of `CCCCCCC=C(c1cc(Cl)c(OC)c(C(=O)OC)c1)c1cc(Cl)c(OC)c(C(=O)OC)c1`, the EC50 is > 5.37 µM and the IC50 was > 5.37 µM.
In the case of `O=S(=O)(c1ccc(NC2=NC(c3ccc(O)cc3)(c3ccccc3O)c3ccccc32)cc1)c1ccc(NC2=NC(c3ccc(O)cc3)(c3ccccc3O)c3ccccc32)cc1` (configuration not stated), the EC50 is > 200 µM and the IC50 stood at 3.47 µM.
The corresponding values for `C=C(c1ccccc1)N1N=NC2CCOC21` (configuration not stated) are > 200 µM and > 200 µM.
In the same order, the values of `CC(C)C(/C=C/c1ccc(Br)cc1)=N\NC(N)=O` are > 32.4 µM and > 32.4 µM.
On to `CC1(C)C2CCC(=O)C1CC2` (configuration not stated), for which the EC50 is > 200 µM and the half-inhibitory concentration (IC50) is > 200 µM.
With `COc1cc(/C=C/c2sc3ccccc3[n+]2C)ccc1N(C)C`, the EC50 was > 200 µM and the concentration for half-maximal inhibition (IC50) turned out to be 3.24 µM.
In the same order, the values of `CCCCOCn1c(=O)[nH]c(=O)c2cc(Br)ccc21` are > 200 µM and 93.3 µM.
In the same order, the values of `Cc1ccccc1N1CC2CC3C=CC2(C1)O3` (configuration not stated) are > 200 µM and > 200 µM.
The corresponding values for `CC(=O)N1CCc2[nH]c3ccccc3c2CC1` are > 575 µM and 234 µM.
As to `COc1cccc(-c2nc(N)c(C#N)c3c2CCS(=O)(=O)c2ccc(C)cc2-3)c1`, the EC50 was > 200 µM and the IC50 worked out at 4.07 µM.
As to `COc1ccc(/C=C2\CCCCCC2=O)cc1`, the EC50 was > 200 µM and the IC50 is > 200 µM.
As to `CCOC(=O)C(=CN1C/C(=C/C(C)=C/c2ccccc2)SC1=S)C(=O)OCC`, the EC50 is > 100 µM and the IC50 came out at 18.2 µM.
Regarding `N#C/C(=C\c1ccccc1[N+](=O)[O-])c1ccccc1`, the EC50 is > 5.75 µM and the IC50 was > 5.75 µM.
As to `Cc1ccc2c(c1)C(=O)C1(C2)Cc2cccc(C)c2C1=O` (configuration not stated), the EC50 was > 200 µM and the IC50 is > 200 µM.
For `Cc1cc(NCCCCCCCNc2cc(C)nc3cc(N)ccc23)c2ccc(N)cc2n1`, the EC50 was 5.89 µM and the half-inhibitory concentration (IC50) was determined as 8.71 µM.
The corresponding values for `CSCCCSC1CCCCCCCCCCC1=O` (configuration not stated) are > 200 µM and > 200 µM.
The corresponding values for `O=C(n1[nH]c(=O)n(-c2ccc([N+](=O)[O-])cc2)c1=O)C(Cl)(Cl)Cl` are > 200 µM and > 200 µM.
In the same order, the values of `Cc1cc2c(C(C)C)c(O)c(O)c(C=Nc3ccc(Cl)cc3)c2c(O)c1-c1c(C)cc2c(C(C)C)c(O)c(O)c(C=Nc3ccc(Cl)cc3)c2c1O` are > 200 µM and 11.7 µM.
Take `O=C(CCC(NC(=O)OCc1ccccc1)C(=O)OCc1ccccc1)Nc1cccc(OCc2ccccc2)c1` (configuration not stated): the EC50 was > 200 µM and the half-maximal inhibitory concentration (IC50) was determined as 35.5 µM.
The corresponding values for `COc1cc(C2c3cc(OC)c(OC)c(O)c3C(=O)C3CCC(=O)N32)cc(OC)c1OC` (configuration not stated) are > 100 µM and 14.8 µM.
The corresponding values for `c1ccc(N=C2c3ccccc3C3=NCCCN32)cc1` are > 100 µM and > 100 µM.
The corresponding values for `Cc1ccc2c(c1)nc1c3ccccc3[nH]n21` are > 5.89 µM and > 5.89 µM.
On to `COc1cc(C(C#N)NNC(=O)c2ccccc2O)ccc1O` (configuration not stated), for which the EC50 is > 5.75 µM and the 50% inhibitory concentration (IC50) was 0.427 µM.
In the same order, the values of `Cc1occc1C(=S)Nc1ccc(Cl)c(COC(C)(C)C)c1` are 5.13 µM and 29.5 µM.
The corresponding values for `N=C1c2ccccc2C(=O)c2c(NCCNCCO)ccc(O)c21` are > 7.76 µM and 0.759 µM.
In the same order, the values of `Cc1nc(N)c2c(n1)C(C)N(C(=O)c1ccccc1)C2` (configuration not stated) are > 135 µM and > 135 µM.
For `CCOC(=O)/C(O)=C/c1cc(OC)cc(=O)o1`, the result was inactive.
For the compound `COc1ccc2c(C)cc(=O)oc2c1`, the EC50 was > 200 µM and the IC50 is > 200 µM.
On to `CCOP(=O)(OCC)C(C)(CC)N/C(=N/C(NC(C)=O)(C(F)(F)F)C(F)(F)F)NC1=NC(C(F)(F)F)(C(F)(F)F)N=C(C(F)(F)F)O1` (configuration not stated), for which the EC50 was > 200 µM and the half-maximal inhibitory concentration (IC50) is 14.5 µM.
In the same order, the values of `O=C1NCCCC12CCCNC2=O` are > 20.9 µM and > 20.9 µM.
The corresponding values for `CCOC(=O)NC1=C(N2CC2)C(=O)C(NC(=O)OCC)=C(N2CC2)C1=O` are > 24.5 µM and 6.46 µM.
In the same order, the values of `COC(=O)C1(Cc2ccccc2)Cc2cc3c(cc2C1O)CCC3` (configuration not stated) are > 200 µM and 24 µM.
For `CC(=O)Nc1ccc(C(=O)NN2C(=O)C(Cl)C2c2ccc(O)cc2)cc1` (configuration not stated), the EC50 is > 200 µM and the IC50 is > 200 µM.
As to `Cc1ccc(S(=O)(=O)SCc2ccccc2)cc1`, the EC50 was > 67.6 µM and the IC50 is 5.62 µM.
For `Cc1cc(C)c(NC(=O)c2cnccn2)c(=O)o1`, the EC50 was > 200 µM and the IC50 was > 200 µM.
Consider `COC(=O)c1ccc(CSc2ccc(Cl)cc2)cc1`, for which the EC50 is > 4.9 µM and the IC50 was 3.55 µM.
Regarding `CC(C)(C)OC(=O)NC(Cc1ccccc1)C(=O)NC(Cc1ccccc1)C(=O)NCC(=O)OCc1ccccc1` (stereo not drawn) (Boc-Phe-Phe-Gly-OBn; configuration not given here), the EC50 is > 200 µM and the IC50 is 11.5 µM.
In the same order, the values of `NS(=O)(=O)c1ccc(NC(=O)c2cccc3c(Nc4ccc(S(N)(=O)=O)cc4)c4ccccc4nc23)cc1` are > 34.7 µM and 26.3 µM.
In the case of `CC12SC(C)(c3c[se]cc31)C1C(=O)N(c3ccccc3)C(=O)C12` (configuration not stated), the outcome was inactive.
`CC(=O)[O-].[Mn+3].[O-]c1ccccc1C=NCCNCCN=Cc1ccccc1[O-]`: the EC50 is > 182 µM and the IC50 was determined as 10.5 µM.
`CCS(=O)(=O)CCOP(=O)(c1ccccc1)c1ccccc1`: the result was inactive.
On to `COC(=O)C1=C2Nc3ccccc3C23CCN2CCC(=O)C[C@H](C1)[C@@H]23` (some centres not stated), for which the EC50 is > 107 µM and the IC50 is > 107 µM.
On to `C(=C/[PH+](c1ccccc1)c1ccccc1)/[PH+](c1ccccc1)c1ccccc1.O=C([O-])C(F)(F)F.[C-]#[O+].[C-]#[O+].[C-]#[O+].[Mn]`, for which the EC50 was > 8.13 µM and the half-maximal inhibitory concentration (IC50) was 0.589 µM.
The corresponding values for `O=c1[nH]nc(NCc2ccccc2)c2nnn(Cc3ccccc3)c12` are > 200 µM and > 200 µM.
As to `CN(C)c1ccc(/C=C2\CCc3ccccc3C2=O)cc1`, the EC50 is > 9.77 µM and the half-maximal inhibitory concentration (IC50) stood at 5.5 µM.
Consider `O=C1C(Cl)=C(Cl)C(=O)N1c1ccc(F)cc1`, for which the outcome was inactive.
As for `NC(C(=O)OC(=O)c1ccccc1)C(=O)OC(=O)c1ccccc1`, the EC50 is > 200 µM and the IC50 is 97.7 µM.
The corresponding values for `Cc1ccc(S(=O)(=O)N2CCCN(S(=O)(=O)c3ccc(C)cc3)CCN(S(=O)(=O)c3ccc(C)cc3)CCCSCC2)cc1` are > 5.5 µM and > 5.5 µM.
As to `O=C(CCCN1CCC2(CC1)NC(=O)c1ccccc1O2)c1ccc(F)cc1`, the EC50 was > 200 µM and the half-inhibitory concentration (IC50) was > 200 µM.
With `CCN(CC)c1ccc2cc(-c3nc4ccccc4[nH]3)c(=O)oc2c1`, the EC50 was > 7.76 µM and the half-maximal inhibitory concentration (IC50) is > 7.76 µM.

The record behind these values is PubChem BioAssay AID179 (DTP/NCI, 2004).
